Reference: patent publication US5998366A, “Method for ameliorating glutamic acid decarboxylase associated autoimmune disorders” (The Regents of the University of California, priority 1997, dated 1999)

System: spleen cells of 6-9 week old NOD mice
Assay: IFNγ ELISA and ELISA spot of spleen cells challenged with antigen
Format: cell-based
Method: In one series of experiments γ interferon (IFNγ) was measured by ELISA in culture supernatants (CSN) of spleen cells of 6-9 week old mice after challenge with GAD or control antigens HEL and MBP. Additionally, the frequency of antigen specific, IFNγ-producing cells was determined by an ELISA spot technique (T. Taguchi, et al., J. Immunol., 145:68-77, 1990). Frequency of antigen-induced, spot forming cells (SFC) among 10^3 spleen cells is represented in FIG. 9(a). Values are the mean+SEM from 5 individual female NOD mice, each tested in triplicate cultures with or without antigen. Results from a single experiment are shown. These are representative of 3 separate experiments.
In performing these experiments, freshly isolated spleen cells were cultured with or without antigen as described in Example 4. CSN were taken after 48 h and the concentration of IFNγ was determined by ELISA (Macy, et al., FASEB J., 3003-3009, 1988). IFNγ specific monoclonal antibody (mAb) R4-6A2 (Pharmingen) was used as the capturing reagent and biotinylated mAb XMG 1.2 (Pharmingen, also specific for IFNγ) was used in conjunction with streptavidin-alkaline phosphatase (Zymed) and […] for detection of bound lymphokine. […] Spots were counted visually and the frequency of antigen specific cells was determined from the difference between the number of spots seen with and without antigen.

## GAD: human GAD65 purified from recombinant bacteria on the basis of a hexahistidine tag
48 h, ELISA
  IFNγ in culture supernatants after antigen challenge: high concentrations of IFNγ
ELISA spot
  frequency of antigen-reactive (IFNγ spot forming) T-cells in the spleen: 90-291 cells per 10^5 cells
